For one assay, the target named is T1, BRAF V600E (Homo sapiens, UniProt P15056, V600E).
T1 construct: expressed in transfected cells
The assay can be described thus: Cellular assay of target protein degradation, T-Rex 293 cells stably transfected with HA-BRAF_V600E (HA immunofluorescence, high content imaging). Particulars: T-Rex 293 HA-BRAF V600E; for DC50: half maximal degradation, read-out: BRaf V600E DC50; for Dmax: maximum degradation observed. The class given is cell-based. A digest of the protocol: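 Degradation of the HA-tagged construct is measured after 24 h treatment at 37 °C across 1 μM to 0.1 nM in 0.1% DMSO, in doxycycline-induced (1 ng/mL) cells. DC50 and Dmax come from HA fluorescence imaging.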

The target of a further assay is T2, BRAF G466V (Homo sapiens, UniProt P15056, G466V).
T2 construct: expressed in transfected cells
T2 sequence (P15056 whole entry G466V): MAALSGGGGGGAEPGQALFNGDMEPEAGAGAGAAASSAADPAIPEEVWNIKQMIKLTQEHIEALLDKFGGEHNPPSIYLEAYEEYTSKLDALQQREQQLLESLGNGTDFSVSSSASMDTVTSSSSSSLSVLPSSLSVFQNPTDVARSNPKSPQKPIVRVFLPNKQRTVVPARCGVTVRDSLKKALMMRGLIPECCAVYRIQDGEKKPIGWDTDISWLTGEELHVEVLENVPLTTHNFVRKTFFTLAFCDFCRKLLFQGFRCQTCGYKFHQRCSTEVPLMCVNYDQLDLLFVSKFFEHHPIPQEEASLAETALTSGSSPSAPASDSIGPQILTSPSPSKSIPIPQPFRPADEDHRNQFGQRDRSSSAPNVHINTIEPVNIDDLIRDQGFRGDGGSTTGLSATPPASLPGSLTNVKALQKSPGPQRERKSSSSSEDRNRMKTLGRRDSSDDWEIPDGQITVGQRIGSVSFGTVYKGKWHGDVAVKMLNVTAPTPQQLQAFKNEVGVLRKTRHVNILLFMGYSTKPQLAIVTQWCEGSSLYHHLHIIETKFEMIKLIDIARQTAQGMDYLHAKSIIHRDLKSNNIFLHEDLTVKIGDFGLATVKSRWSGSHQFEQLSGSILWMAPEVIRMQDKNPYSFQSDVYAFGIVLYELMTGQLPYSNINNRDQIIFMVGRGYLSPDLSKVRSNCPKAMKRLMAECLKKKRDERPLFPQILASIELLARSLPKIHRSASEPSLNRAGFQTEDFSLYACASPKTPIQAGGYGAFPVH
As to the kind of experiment: Cellular assay of target protein degradation, T-Rex 293 cells stably transfected with HA-BRAF G466V (HA immunofluorescence, high content imaging). Format: cell-based. The settings on record: T-Rex 293 HA-BRAF G466V; for DC50: half maximal degradation, read-out: BRaf G466V DC50; for Dmax: maximum degradation observed. A digest of the protocol: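 Dose range spans 30 nM to 3 pM (0.1% DMSO) over 24 hours at 37° C, in cells induced with 0.75 ng/mL doxycycline. Fixed cells are probed with anti-HA antibody overnight at 4° C, then imaged; half-maximal degradation and maximum degradation are derived.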

T1 sequence (P15056 whole entry V600E): as the sequence (P15056 whole entry G466V) above, with V466G, V600E counted along it

In the case of `COc1cc([C@@H](O)CCN2CCN(c3ccc(-c4cnc5[nH]cc(C(=O)c6c(F)ccc(NS(=O)(=O)N7CC[C@@H](F)C7)c6F)c5c4)cc3)CC2)cc2c1C(=O)N([C@@H]1CCC(=O)NC1=O)C2` [Compound 296, (3R)-N-{3-[5-(4-{4-[(3S)-3-{2-[(3R)-2,6-dioxopiperidin-3-yl]-7-methoxy-1-oxo-2,3-dihydro-1H-isoindol-5-yl}-3-hydroxypropyl]piperazin-1-yl}phenyl)-1H-pyrrolo[2,3-b]pyridine-3-carbonyl]-2,4-difluorophenyl}-3-fluoropyrrolidine-1-sulfonamide], the DC50 (as a rule, the concentration at which degradation of the target reaches its halfway point) on BRAF V600E is 50 to 500 nM; on BRAF G466V, 1 to 10 nM. The Dmax at BRAF V600E and on BRAF G466V was 35 to 70% throughout.
Consider `O=C1CCC(N2Cc3cc(C4CCN(C[C@H]5CCN(c6ccc(-c7cnc8[nH]cc(C(=O)c9c(F)ccc(NS(=O)(=O)N%10CC[C@@H](F)C%10)c9F)c8c7)cc6)C[C@H]5F)CC4)ccc3C2=O)C(=O)N1` (stereo partly drawn) [Compound 297, (3R)-N-[3-(5-{4-[(3S,4R)-4-({4-[2-(2,6-dioxopiperidin-3-yl)-1-oxo-2,3-dihydro-1H-isoindol-5-yl]piperidin-1-yl}methyl)-3-fluoropiperidin-1-yl]phenyl}-1H-pyrrolo[2,3-b]pyridine-3-carbonyl)-2,4-difluorophenyl]-3-fluoropyrrolidine-1-sulfonamide], for which, on BRAF V600E, the DC50 was 5 to 50 nM and the Dmax (in general, the largest share of the target that was removed) fell in the range of 35 to 70%. Also, at BRAF G466V, the DC50 is below 1 nM and the Dmax is above 70%.
Consider `O=C1CCC(N2Cc3cc(N4CCC(CN5CCN(C6(c7ncc(-c8cnc9[nH]cc(C(=O)c%10c(F)ccc(NS(=O)(=O)N%11CC[C@@H](F)C%11)c%10F)c9c8)cn7)CC6)CC5)CC4)ccc3C2=O)C(=O)N1` (stereo partly drawn) [Compound 298, (3R)-N-{3-[5-(2-{1-[4-({1-[2-(2,6-dioxopiperidin-3-yl)-1-oxo-2,3-dihydro-1H-isoindol-5-yl]piperidin-4-yl}methyl)piperazin-1-yl]cyclopropyl}pyrimidin-5-yl)-1H-pyrrolo[2,3-b]pyridine-3-carbonyl]-2,4-difluorophenyl}-3-fluoropyrrolidine-1-sulfonamide], for which, at BRAF V600E, the DC50 fell in the range of 50 to 500 nM and the Dmax is below 35%. Moreover, at BRAF G466V, the DC50 was below 1 nM and the maximal degradation (Dmax) was in the range of 35 to 70%.
With `O=C1CCC(N2Cc3cc([C@H](O)CN4CC5(C4)CN(c4ccc(-c6cnc7[nH]cc(C(=O)c8c(F)ccc(NS(=O)(=O)N9CC[C@@H](F)C9)c8F)c7c6)cc4)C5)ccc3C2=O)C(=O)N1` (stereo partly drawn) [Compound 299, (3R)-N-{3-[5-(4-{6-[(2S)-2-[2-(2,6-dioxopiperidin-3-yl)-1-oxo-2,3-dihydro-1H-isoindol-5-yl]-2-hydroxyethyl]-2,6-diazaspiro[3.3]heptan-2-yl}phenyl)-1H-pyrrolo[2,3-b]pyridine-3-carbonyl]-2,4-difluorophenyl}-3-fluoropyrrolidine-1-sulfonamide], on BRAF V600E, the half-maximal degradation concentration (DC50) lay in the range of 5 to 50 nM and the greatest degradation seen (Dmax) was 35 to 70%. In addition, on BRAF G466V, the DC50 fell in the range of 1 to 10 nM and the Dmax was above 70%.
Take `O=C1CC[C@H](N2Cc3cc([C@@H](O)CCN4CCN(c5ccc(-c6cnc7[nH]cc(C(=O)c8c(F)ccc(NS(=O)(=O)N9CC[C@@H](F)C9)c8F)c7c6)cc5)CC4)c(F)cc3C2=O)C(=O)N1` [Compound 300, (3R)-N-{3-[5-(4-{4-[(3S)-3-{2-[(3S)-2,6-dioxopiperidin-3-yl]-6-fluoro-1-oxo-2,3-dihydro-1H-isoindol-5-yl}-3-hydroxypropyl]piperazin-1-yl}phenyl)-1H-pyrrolo[2,3-b]pyridine-3-carbonyl]-2,4-difluorophenyl}-3-fluoropyrrolidine-1-sulfonamide]: at BRAF V600E, the DC50 fell in the range of 50 to 500 nM and the Dmax lay in the range of 35 to 70%. Further, on BRAF G466V, the 50% degradation concentration (DC50) was below 1 nM and the Dmax is 35 to 70%.
For `O=C1CC[C@@H](N2Cc3cc([C@@H](O)CCN4CCN(c5ccc(-c6cnc7[nH]cc(C(=O)c8c(F)ccc(NS(=O)(=O)N9CC[C@@H](F)C9)c8F)c7c6)cc5)CC4)c(F)cc3C2=O)C(=O)N1` [Compound 301, (3R)-N-{3-[5-(4-{4-[(3S)-3-{2-[(3R)-2,6-dioxopiperidin-3-yl]-6-fluoro-1-oxo-2,3-dihydro-1H-isoindol-5-yl}-3-hydroxypropyl]piperazin-1-yl}phenyl)-1H-pyrrolo[2,3-b]pyridine-3-carbonyl]-2,4-difluorophenyl}-3-fluoropyrrolidine-1 sulfonamide], at BRAF V600E, the DC50 fell in the range of 50 to 500 nM and the Dmax lay within 35 to 70%. On BRAF G466V, the DC50 is below 1 nM and the maximal degradation (Dmax) is above 70%.
With `O=C1CCC(N2Cc3cc(N4CCC(CC5CN(c6ccc(-c7cnc8[nH]cc(C(=O)c9c(F)ccc(NS(=O)(=O)N%10CC[C@@H](F)C%10)c9F)c8c7)cc6)C5)CC4)ccc3C2=O)C(=O)N1` (stereo partly drawn) [Compound 302, (3R)-N-[3-(5-{4-[3-({1-[2-(2,6-dioxopiperidin-3-yl)-1-oxo-2,3-dihydro-1H-isoindol-5-yl]piperidin-4-yl}methyl)azetidin-1-yl]phenyl}-1H-pyrrolo[2,3-b]pyridine-3-carbonyl)-2,4-difluorophenyl]-3-fluoropyrrolidine-1-sulfonamide], on BRAF V600E, the DC50 lay within 50 to 500 nM and the Dmax was 35 to 70%. Moreover, on BRAF G466V, the DC50 is 1 to 10 nM and the Dmax lay in the range of 35 to 70%.
Regarding `O=C1CCC(N2Cc3cc(N4CC(CN5CCC(Cc6ccc(-c7cnc8[nH]cc(C(=O)c9c(F)ccc(NS(=O)(=O)N%10CC[C@@H](F)C%10)c9F)c8c7)cc6)CC5)C4)ccc3C2=O)C(=O)N1` (stereo partly drawn) [Compound 303, (3R)-N-{3-[5-(4-{[1-({1-[2-(2,6-dioxopiperidin-3-yl)-1-oxo-2,3-dihydro-1H-isoindol-5-yl]azetidin-3-yl}methyl)piperidin-4-yl]methyl}phenyl)-1H-pyrrolo[2,3-b]pyridine-3-carbonyl]-2,4-difluorophenyl}-3-fluoropyrrolidine-1-sulfonamide], on BRAF V600E, the DC50 lay in the range of 5 to 50 nM and the Dmax lay in the range of 35 to 70%. For the same compound, on BRAF G466V, the 50% degradation concentration (DC50) is 1 to 10 nM and the maximal degradation (Dmax) is above 70%.
On to `O=C1CCC(N2Cc3cc(N4CC(CN5CCC(C6(c7ccc(-c8cnc9[nH]cc(C(=O)c%10c(F)ccc(NS(=O)(=O)N%11CC[C@@H](F)C%11)c%10F)c9c8)cc7)CC6)CC5)C4)ccc3C2=O)C(=O)N1` (stereo partly drawn) [Compound 304, (3R)-N-{3-[5-(4-{1-[1-({1-[2-(2,6-dioxopiperidin-3-yl)-1-oxo-2,3-dihydro-1H-isoindol-5-yl]azetidin-3-yl}methyl)piperidin-4-yl]cyclopropyl}phenyl)-1H-pyrrolo[2,3-b]pyridine-3-carbonyl]-2,4-difluorophenyl}-3-fluoropyrrolidie-1-sulfonamide], for which, on BRAF V600E, the DC50 is 50 to 500 nM and the Dmax was in the range of 35 to 70%. On BRAF G466V, the DC50 was 1 to 10 nM and the maximal degradation (Dmax) fell in the range of 35 to 70%.
Regarding `O=C1CCC(N2Cc3cc(N4CC(CC5CCN(c6ccc(-c7cnc8[nH]cc(C(=O)c9c(F)ccc(NS(=O)(=O)N%10CC[C@@H](F)C%10)c9F)c8c7)cc6)CC5)C4)ccc3C2=O)C(=O)N1` (stereo partly drawn) [Compound 306, (3R)-N-[3-(5-{4-[4-({1-[2-(2,6-dioxopiperidin-3-yl)-1-oxo-2,3-dihydro-1H-isoindol-5-yl]azetidin-3-yl}methyl)piperidin-1-yl]phenyl}-1H-pyrrolo[2,3-b]pyridine-3-carbonyl)-2,4-difluorophenyl]-3-fluoropyrrolidine-1-sulfonamide], at BRAF V600E, the half-maximal degradation concentration (DC50) was 50 to 500 nM and the Dmax lay in the range of 35 to 70%. Moreover, at BRAF G466V, the DC50 is 1 to 10 nM and the Dmax is 35 to 70%.
Regarding `O=C1CCC(N2Cc3cc(N4CCC(CN5CC(Cc6ncc(-c7cnc8[nH]cc(C(=O)c9c(F)ccc(NS(=O)(=O)N%10CC[C@@H](F)C%10)c9F)c8c7)cn6)C5)CC4)ccc3C2=O)C(=O)N1` (stereo partly drawn) [Compound 307, (3R)-N-{3-[5-(2-{[1-({1-[2-(2,6-dioxopiperidin-3-yl)-1-oxo-2,3-dihydro-1H-isoindol-5-yl]piperidin-4-yl}methyl)azetdidin-3-yl]methyl}pyrimidin-5-yl)-1H-pyrrolo[2,3-b]pyridine-3-carbonyl]-2,4-difluorophenyl}-3-fluoropyrrolidine-1-sulfonamide], the DC50 on BRAF V600E is above 500 nM; on BRAF G466V it was 1 to 10 nM. The greatest degradation seen (Dmax) is above 70% at BRAF V600E and 35 to 70% on BRAF G466V.
Consider `O=C1CCC(N2Cc3cc(N4CCC(CCC5CCN(c6ccc(-c7cnc8[nH]cc(C(=O)c9c(F)ccc(NS(=O)(=O)N%10CC[C@@H](F)C%10)c9F)c8c7)cc6)CC5)CC4)ccc3C2=O)C(=O)N1` (stereo partly drawn) [Compound 308, (3R)-N-[3-(5-{4-[4-(2-{1-[2-(2,6-dioxopiperidin-3-yl)-1-oxo-2,3-dihydro-1H-isoindol-5-yl]piperidin-4-yl}ethyl)piperidin-1-yl]phenyl}-1H-pyrrolo[2,3-b]pyridine-3-carbonyl)-2,4-difluorophenyl]-3-fluoropyrrolidine-1-sulfonamide], for which the DC50 at BRAF V600E was 50 to 500 nM; on BRAF G466V it was above 30 nM. This compound also had a maximal degradation (Dmax) at BRAF V600E below 35%.
With `O=C1CCC(N2Cc3cc(N4CCC(CN5CC[C@@H]6CN(c7ccc(-c8cnc9[nH]cc(C(=O)c%10c(F)ccc(NS(=O)(=O)N%11CC[C@@H](F)C%11)c%10F)c9c8)cc7)C[C@@H]6C5)CC4)ccc3C2=O)C(=O)N1` (stereo partly drawn) [Compound 309], at BRAF V600E, the half-maximal degradation concentration (DC50) was 5 to 50 nM and the greatest degradation seen (Dmax) lay within 35 to 70%. On BRAF G466V, the DC50 fell in the range of 1 to 10 nM and the Dmax is above 70%.
